Reference: US20200392158A1, “INHIBITORS OF LEUCINE RICH REPEAT KINASE 2” (GLAXOSMITHKLINE INTELLECTUAL PROPERTY DEVELOPMENT LIMITED, priority 2017, published 2020)

Key:
[1] = target: T1, full length G2019 human LRRK2 (Homo sapiens, UniProt Q5S007, R50H); test: Full length G2019 human LRRK2 inhibition mass spectrometry assay; assay type: biochemical; settings: LRRKtide to phospho-LRRKtide conversion, RapidFire MS, 2 mM ATP
T1 construct: made in house; host or cells: HEK293 6E cells transduced with BacMam virus (virus generated in Sf9 cells)
Procedure, shortened: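 Purified full-length Flag-tagged G2019 LRRK2, ~25 nM, with 25 μM LRRKtide and 2 mM ATP in 50 mM Hepes pH 7.2, 10 mM MgCl2, 150 mM NaCl, 1 h at room temperature. Quenched with formic acid; phospho- and unphosphorylated LRRKtide measured by RapidFire MS. pIC50 from 4-parameter fit of % conversion, 11 points, top 100 μM.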

[2] = target: T2, LRRK2 kinase in SH-SY5Y cells over-expressing recombinant full length LRRK2 (Homo sapiens, UniProt Q5S007); test: Recombinant cellular LRRK2 AlphaScreen assay (LRRK2 Ser935 phosphorylation); assay type: cell-based; settings: 60 min
T2 construct: A BacMam virus expressing full length recombinant LRRK2 was purchased from Invitrogen; host or cells: SH-SY5Y human neuroblastoma cells transduced with BacMam LRRK2 virus
Procedure, shortened: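 SH-SY5Y cells transduced with BacMam full-length LRRK2 (MOI 50) for 24 h, then treated 60 min at 37 °C with compound (11-point 1:4 series, top 10 uM, 0.1% DMSO). Lysates probed by AlphaScreen for pSer935 vs total LRRK2; values fitted to a sigmoidal dose-response model.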

T2 sequence (Q5S007 whole entry): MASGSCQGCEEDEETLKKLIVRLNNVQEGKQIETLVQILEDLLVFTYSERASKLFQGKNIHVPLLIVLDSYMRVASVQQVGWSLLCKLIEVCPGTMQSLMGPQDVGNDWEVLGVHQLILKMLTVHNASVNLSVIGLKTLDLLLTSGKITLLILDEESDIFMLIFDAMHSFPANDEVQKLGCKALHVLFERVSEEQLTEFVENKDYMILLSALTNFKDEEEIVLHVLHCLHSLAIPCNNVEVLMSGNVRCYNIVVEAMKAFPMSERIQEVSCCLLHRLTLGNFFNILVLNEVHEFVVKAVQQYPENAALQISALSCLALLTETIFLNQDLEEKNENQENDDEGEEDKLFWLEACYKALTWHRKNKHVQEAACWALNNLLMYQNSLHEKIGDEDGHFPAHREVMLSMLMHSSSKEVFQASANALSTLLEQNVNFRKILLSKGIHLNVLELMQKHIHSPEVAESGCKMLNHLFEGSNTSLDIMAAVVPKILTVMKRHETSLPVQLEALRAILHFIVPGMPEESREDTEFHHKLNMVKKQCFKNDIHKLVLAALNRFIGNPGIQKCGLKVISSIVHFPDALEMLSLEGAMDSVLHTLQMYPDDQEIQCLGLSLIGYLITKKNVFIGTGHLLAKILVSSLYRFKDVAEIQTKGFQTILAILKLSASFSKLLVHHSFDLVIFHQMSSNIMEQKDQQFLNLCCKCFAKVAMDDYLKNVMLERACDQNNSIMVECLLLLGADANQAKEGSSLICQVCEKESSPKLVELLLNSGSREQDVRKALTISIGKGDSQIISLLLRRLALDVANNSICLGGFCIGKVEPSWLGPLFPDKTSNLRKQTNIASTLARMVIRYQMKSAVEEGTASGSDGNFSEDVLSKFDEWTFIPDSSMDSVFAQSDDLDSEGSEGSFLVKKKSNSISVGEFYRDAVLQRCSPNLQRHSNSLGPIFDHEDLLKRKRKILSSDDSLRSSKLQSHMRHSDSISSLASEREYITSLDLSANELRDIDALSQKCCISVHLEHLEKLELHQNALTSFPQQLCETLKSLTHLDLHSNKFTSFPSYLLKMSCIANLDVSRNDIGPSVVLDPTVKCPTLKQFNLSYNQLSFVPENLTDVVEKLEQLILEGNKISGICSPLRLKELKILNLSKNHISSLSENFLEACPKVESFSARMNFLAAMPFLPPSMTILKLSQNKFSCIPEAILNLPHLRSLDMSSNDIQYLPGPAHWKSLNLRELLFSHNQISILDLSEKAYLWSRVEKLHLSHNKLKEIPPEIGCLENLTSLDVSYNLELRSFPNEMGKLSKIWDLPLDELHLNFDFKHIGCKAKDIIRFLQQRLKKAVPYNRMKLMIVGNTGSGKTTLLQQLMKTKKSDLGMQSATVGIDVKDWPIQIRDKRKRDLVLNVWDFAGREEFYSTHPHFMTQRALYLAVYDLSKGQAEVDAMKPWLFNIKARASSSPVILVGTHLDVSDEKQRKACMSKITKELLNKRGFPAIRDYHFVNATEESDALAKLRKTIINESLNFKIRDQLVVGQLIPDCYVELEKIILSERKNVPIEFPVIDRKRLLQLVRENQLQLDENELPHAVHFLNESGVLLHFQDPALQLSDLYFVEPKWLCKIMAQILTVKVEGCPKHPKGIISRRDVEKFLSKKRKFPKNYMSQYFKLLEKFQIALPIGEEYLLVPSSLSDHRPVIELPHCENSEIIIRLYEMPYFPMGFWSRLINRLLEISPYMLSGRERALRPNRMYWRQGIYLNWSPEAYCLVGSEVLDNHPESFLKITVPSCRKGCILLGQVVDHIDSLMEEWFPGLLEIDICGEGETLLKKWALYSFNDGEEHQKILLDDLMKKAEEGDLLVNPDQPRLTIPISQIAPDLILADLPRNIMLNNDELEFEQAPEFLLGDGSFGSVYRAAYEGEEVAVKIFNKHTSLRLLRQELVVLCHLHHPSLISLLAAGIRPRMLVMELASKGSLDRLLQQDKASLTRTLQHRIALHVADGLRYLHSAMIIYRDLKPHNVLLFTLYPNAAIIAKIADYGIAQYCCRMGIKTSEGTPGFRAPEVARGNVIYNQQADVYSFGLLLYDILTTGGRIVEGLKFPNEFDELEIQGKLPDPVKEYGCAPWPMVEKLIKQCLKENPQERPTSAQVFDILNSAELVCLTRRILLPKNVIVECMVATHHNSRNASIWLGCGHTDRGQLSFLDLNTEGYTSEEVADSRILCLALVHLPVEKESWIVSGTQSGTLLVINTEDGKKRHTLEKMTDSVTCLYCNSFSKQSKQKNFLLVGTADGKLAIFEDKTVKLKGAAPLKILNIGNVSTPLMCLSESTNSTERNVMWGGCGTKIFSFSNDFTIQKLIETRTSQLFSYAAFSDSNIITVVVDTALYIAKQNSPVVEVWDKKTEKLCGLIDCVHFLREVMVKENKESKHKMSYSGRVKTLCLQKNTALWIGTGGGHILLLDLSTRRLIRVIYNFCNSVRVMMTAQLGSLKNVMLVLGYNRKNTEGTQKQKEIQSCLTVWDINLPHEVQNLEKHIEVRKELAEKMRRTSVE
T1 sequence (Q5S007 with tags, fused parts or gaps R50H): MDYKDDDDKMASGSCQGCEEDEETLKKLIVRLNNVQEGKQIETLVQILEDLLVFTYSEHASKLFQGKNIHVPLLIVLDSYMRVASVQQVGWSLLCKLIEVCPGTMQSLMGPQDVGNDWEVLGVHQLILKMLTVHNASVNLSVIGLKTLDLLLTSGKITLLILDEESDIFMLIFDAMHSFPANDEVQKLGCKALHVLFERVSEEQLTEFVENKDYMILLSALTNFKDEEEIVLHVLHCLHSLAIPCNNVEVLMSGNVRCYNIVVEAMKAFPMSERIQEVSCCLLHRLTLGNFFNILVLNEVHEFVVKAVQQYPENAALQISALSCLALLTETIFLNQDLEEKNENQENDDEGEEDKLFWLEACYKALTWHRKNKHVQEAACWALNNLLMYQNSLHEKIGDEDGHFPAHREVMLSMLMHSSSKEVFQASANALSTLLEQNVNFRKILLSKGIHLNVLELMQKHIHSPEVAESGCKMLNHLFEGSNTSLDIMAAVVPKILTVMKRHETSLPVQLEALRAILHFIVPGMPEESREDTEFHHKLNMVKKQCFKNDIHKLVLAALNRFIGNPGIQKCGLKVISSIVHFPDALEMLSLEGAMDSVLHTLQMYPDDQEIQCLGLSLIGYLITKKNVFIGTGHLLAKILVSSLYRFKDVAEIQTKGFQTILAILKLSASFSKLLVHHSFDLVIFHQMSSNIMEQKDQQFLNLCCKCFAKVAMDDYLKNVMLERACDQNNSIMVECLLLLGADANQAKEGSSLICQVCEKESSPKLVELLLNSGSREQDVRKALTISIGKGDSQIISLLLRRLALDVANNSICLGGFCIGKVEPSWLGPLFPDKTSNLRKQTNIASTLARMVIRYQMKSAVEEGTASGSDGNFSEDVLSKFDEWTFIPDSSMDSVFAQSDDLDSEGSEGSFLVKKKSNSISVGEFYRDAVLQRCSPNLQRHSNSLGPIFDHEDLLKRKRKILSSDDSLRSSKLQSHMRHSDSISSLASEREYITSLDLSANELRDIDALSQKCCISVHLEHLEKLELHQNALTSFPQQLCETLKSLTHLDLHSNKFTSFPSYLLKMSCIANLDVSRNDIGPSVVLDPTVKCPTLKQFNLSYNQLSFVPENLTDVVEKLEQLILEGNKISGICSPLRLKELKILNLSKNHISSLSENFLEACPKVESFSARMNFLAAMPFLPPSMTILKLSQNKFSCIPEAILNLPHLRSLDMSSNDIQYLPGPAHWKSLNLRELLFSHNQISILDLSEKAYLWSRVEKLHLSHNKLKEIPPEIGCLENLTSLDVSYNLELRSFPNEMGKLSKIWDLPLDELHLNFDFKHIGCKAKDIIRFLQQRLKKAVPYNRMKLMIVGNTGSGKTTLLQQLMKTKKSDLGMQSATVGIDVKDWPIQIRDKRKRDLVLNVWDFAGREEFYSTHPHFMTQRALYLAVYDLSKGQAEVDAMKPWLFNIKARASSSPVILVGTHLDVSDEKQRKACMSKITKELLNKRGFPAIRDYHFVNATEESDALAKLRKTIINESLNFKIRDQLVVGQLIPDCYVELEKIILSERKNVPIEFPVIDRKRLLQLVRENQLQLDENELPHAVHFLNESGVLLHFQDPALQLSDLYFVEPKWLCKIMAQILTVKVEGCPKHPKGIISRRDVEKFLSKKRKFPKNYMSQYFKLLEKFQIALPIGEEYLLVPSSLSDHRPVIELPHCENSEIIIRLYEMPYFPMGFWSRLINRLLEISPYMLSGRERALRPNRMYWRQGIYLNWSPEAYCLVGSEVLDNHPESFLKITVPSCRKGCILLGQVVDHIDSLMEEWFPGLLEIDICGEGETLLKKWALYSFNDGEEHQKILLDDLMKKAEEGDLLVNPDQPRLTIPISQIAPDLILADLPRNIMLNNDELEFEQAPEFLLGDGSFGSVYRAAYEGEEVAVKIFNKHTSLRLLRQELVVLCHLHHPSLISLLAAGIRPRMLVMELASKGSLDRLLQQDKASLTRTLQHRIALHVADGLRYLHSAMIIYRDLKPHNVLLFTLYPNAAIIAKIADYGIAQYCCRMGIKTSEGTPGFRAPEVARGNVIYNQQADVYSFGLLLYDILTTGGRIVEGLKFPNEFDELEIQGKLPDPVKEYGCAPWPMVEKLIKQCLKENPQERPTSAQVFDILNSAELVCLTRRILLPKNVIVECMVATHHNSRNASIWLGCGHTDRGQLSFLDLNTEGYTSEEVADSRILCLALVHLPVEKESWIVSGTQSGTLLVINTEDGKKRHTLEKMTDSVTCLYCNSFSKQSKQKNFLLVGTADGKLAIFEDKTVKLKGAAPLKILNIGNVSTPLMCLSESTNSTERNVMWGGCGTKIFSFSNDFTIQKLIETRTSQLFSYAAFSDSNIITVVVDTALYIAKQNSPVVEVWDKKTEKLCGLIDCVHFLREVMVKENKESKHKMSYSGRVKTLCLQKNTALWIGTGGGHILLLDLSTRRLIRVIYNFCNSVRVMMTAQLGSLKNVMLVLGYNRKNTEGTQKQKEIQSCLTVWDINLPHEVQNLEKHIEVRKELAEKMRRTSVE

Row | IC50 [1] [µM] | IC50 [2] [µM] | SMILES
1 | ≤ 0.1 | ≤ 0.1 | Cc1c2c(nn1CCN1C[C@@H]3C[C@H]1CO3)OCCCNc1nc(ncc1Cl)N2 (stereo in doubt) [E221, 14-Chloro-4-methyl-5-{2-[(1S,4S)-2-oxa-5-azabicyclo[2.2.1]heptan-5-yl]ethyl}-8-oxa-2,5,6,12,16,17-hexaazatricyclo [11.3.1.0^3,7]heptadeca-1(16),3,6,13(17),14-pentaene]
2 | ≤ 0.1 | ≤ 0.1 | COC1CNc2nc(ncc2Cl)Nc2c(nn(C3CCC(C(F)(F)F)CC3)c2C)OC1 (single isomer, unassigned) [E278, 14-Chloro-10-methoxy-4-methyl-5-[4-(trifluoromethyl)cyclohexyl]-8-oxa-2,5,6,12,16,17-hexaazatricyclo [11.3. 1.0^3,7]heptadeca-1(16),3,6,13(17),14-pentaene]
3 | ≤ 0.1 | ≤ 0.1 | Cc1c2c(nn1C1CCOCC1)OCCC(C(F)(F)F)Nc1nc(ncc1Cl)N2 (single isomer, unassigned) [E192, 14-Chloro-4-methyl-5-(oxan-4-yl)-11-(trifluoromethyl)-8-oxa-2,5,6,12,16,17-hexaazatricyclo[11.3.1.0^3,7] heptadeca-1(16),3,6,13(17),14-pentaene]
4 | ≤ 0.1 | ≤ 0.1 | CCOC1CNc2nc(ncc2Cl)Nc2c(nn(C3CCOCC3)c2C)OC1 (single isomer, unassigned) [E287, 14-Chloro-10-ethoxy-4-methyl-5-(oxan-4-yl)-8-oxa-2,5,6,12,16,17-hexaazatricyclo[11.3.1.0^3,7]heptadeca-1(16),3,6,13(17),14-pentaene]
5 | ≤ 10 | > 10 | Cc1c2c(nn1C1CCOCC1)OCCCNc1nc(ncc1C(C)C)N2 [E428, 4-Methyl-5-(oxan-4-yl)-14-(propan-2-yl)-8-oxa-2,5,6,12,16,17-hexaazatricyclo[11.3.1.0^3,7]heptadeca-1(16),3,6,13(17),14-pentaene]
6 | ≤ 0.1 | ≤ 0.1 | C[C@@H]1CCOc2nn(C3CCOCC3)c(C(F)(F)F)c2Nc2ncc(Cl)c(n2)N1 [E416, (11R)-14-Chloro-11-methyl-5-(oxan-4-yl)-4-(trifluoromethyl)-8-oxa-2,5,6,12,16,17-hexaazatricyclo[11.3.1.0^3,7]heptadeca-1(16),3,6,13(17),14-pentaene]
7 | ≤ 0.1 | ≤ 0.1 | FC(F)c1c2c(nn1C1CCOCC1)OCCCNc1nc(ncc1Cl)N2 [E112, 4-Chloro-4-(difluoromethyl)-5-(oxan-4-yl)-8-oxa-2,5,6,12,16,17-hexaazatricyclo[11.3.1.0^3,7]heptadeca-1(16),3,6,13(17),14-pentaene]
8 | ≤ 0.1 | ≤ 0.1 | Cc1c2c(nn1C1CCOCC1)OCCC(C(F)F)Nc1nc(ncc1Cl)N2 (single isomer, unassigned) [E88, 14-chloro-11-(difluoromethyl)-4-methyl-5-(oxan-4-yl)-8-oxa-2,5,6, 12,16,17-hexaazatricyclo[11.3.1.0^3,7]heptadeca-1(16),3,6,13(17),14-pentaene]
9 | ≤ 0.1 | ≤ 0.1 | Cc1c2c(nn1C1CN(C3CCOCC3)C1)OCCCNc1nc(ncc1Cl)N2 [E366, 14-Chloro-4-methyl-5-[1-(oxan-4-yl)azetidin-3-yl]-8-oxa-2,5,6,12, 16,17-hexaazatricyclo[11.3.1.0^3,7]heptadeca-1(16),3,6,13(17),14-pentaene]
10 | ≤ 0.1 | ≤ 0.1 | Cc1c2c(nn1C1CC(N3C[C@@H]4C[C@H]3CO4)C1)OCCCNc1nc(ncc1Cl)N2 (stereo partly drawn) [E311, 14-Chloro-4-methyl-5-{3-[(1S,4S)-2-oxa-5-azabicyclo[2.2.1]heptan-5-yl]-cyclobutyl}-8-oxa-2,5,6,12,16,17-hexaazatricyclo [11.3.1.0^3,7]heptadeca-1(16),3,6,13(17),14-pentaene]
11 | ≤ 0.1 | ≤ 0.1 | Cc1c2c(nn1C1CCCOC1)OCCCNc1cc(ncc1Cl)N2 (stereo not drawn) [E379, 14-Chloro-4-methyl-5-(oxan-3-yl)-8-oxa-2,5,6,12,16-pentaazatricyclo[11.3.1.0^3,7] heptadeca-1 (16),3,6,13(17),14-pentaene]
12 | – | ≤ 0.1 | Cc1c2c(nn1C1COCC(F)C1)OCCCNc1nc(ncc1Cl)N2 (single isomer, unassigned) [E371, 14-Chloro-5[5-fluorooxan-3-yl]-4-methyl-8-oxa-2,5,6,12,16,17-hexaazatricyclo[11.3.1.0^3,7]heptadeca-1(16),3,6, 13(17),14-pentaene]
13 | – | ≤ 0.1 | Cc1c2c(nn1C1CC(N3C[C@H]4C[C@@H]3CO4)C1)OCCCNc1nc(ncc1Cl)N2 (stereo partly drawn) [E310, 14-Chloro-4-methyl-5-{3-[(1R,4R)-2-oxa-5-azabicyclo[2.2.1]heptan-5-yl]-cyclobutyl}-8-oxa-2,5,6,12,16,17-hexaazatricyclo [11.3.1.0^3,7]heptadeca-1(16),3,6,13(17),14-pentaene]
14 | – | ≤ 0.1 | Cc1c2c(nn1C)OCCCNc1nc(ncc1Cl)N2 [E108, 14-Chloro-4,5-dimethyl-8-oxa-2,5,6,12,16,17-hexaazatricyclo [11.3.1.0^3,7]heptadeca-1(16),3,6,13(17),14-pentaene]
15 | – | ≤ 0.1 | Cc1c2c(nn1CC1CCOCC1)OCCCNc1nc(ncc1Cl)N2 [E338, 14-Chloro-4-methyl-5-(oxan-4-ylmethyl)-8-oxa-2,5,6,12,16,17-hexaazatricyclo[11.3.1.0^3,7]heptadeca-1(16),3,6,13(17),14-pentaene]
16 | – | ≤ 0.1 | COCCN1c2nc(ncc2Cl)Nc2c(nn(C3CCOCC3)c2C)OCC[C@H]1C [E400, (11R)-14-Chloro-12-(2-methoxyethyl)-4,11-dimethyl-5-(oxan-4-yl)-8-oxa-2,5,6,12,16,17-hexaazatricyclo[11.3.1.0^3,7]heptadeca-1(16),3,6,13(17),14-pentaene]
17 | – | ≤ 0.1 | Clc1cnc2nc1NCCCOc1nn(C3CCOC3)c(Cl)c1N2 (stereo not drawn) [E144, 4,14-Dichloro-5-(oxolan-3-yl)-8-oxa-2,5,6,12,16,17-hexaaza tricyclo[11.3.1.0^3,7]heptadeca-1(16),3,6,13(17),14-pentaene]
18 | – | > 10 | Cc1c2c(nn1C1CC3(COC3)C1)OCCC(C)Nc1nc(ncc1Cl)N2 (racemic)
19 | – | ≤ 0.1 | Cc1c2c(nn1C(C)(C)CO)OCC[C@@H](C)Nc1nc(ncc1Cl)N2 [E452, 2-[(11R)-14-Chloro-4,11-dimethyl-8-oxa-2,5,6,12,16,17-hexaazatricyclo[11.3.1.0^3,7]heptadeca-1(16),3,6,13(17),14-pentaen-5-yl]-2-methylpropan-1-ol]
20 | – | ≤ 0.1 | Cc1c2c(nn1C1CCOCC1)OCC(C)CNc1nc(ncc1Cl)N2 (stereo not drawn) [E135, 14-Chloro-4,10-dimethyl-5-(oxan-4-yl)-8-oxa-2,5,6,12,16,17-hexaazatricyclo[11.3.1.0^3,7]heptadeca-1(16),3,6,13(17),14-pentaene]
21 | – | ≤ 0.1 | Cc1c2c(nn1C1CCOCC1F)OCCCNc1nc(ncc1Cl)N2 (single isomer, unassigned) [E233, 14-Chloro-5-(3-fluorooxan-4-yl)-4-methyl-8-oxa-2,5,6,12,16,17-hexaazatricyclo[11.3.1.0^3,7]heptadeca-1(16),3,6,13 (17),14-pentaene]
22 | – | ≤ 0.1 | Cc1c2c(nn1C1CCN(C3CCOC3)CC1)OCC[C@@H](C)Nc1nc(ncc1Cl)N2 (single isomer, unassigned) [E383]
23 | – | ≤ 0.1 | Cc1c2c(nn1C1CCCOC1)OCCCNc1nc(ncc1C(F)(F)F)N2 (single isomer, unassigned) [E132, 4-methyl-5-(oxan-3-yl)-14-(trifluoromethyl)-8-oxa-2,5,6,12,16,17-hexaazatricyclo[11.3.1.0^3,7]heptadeca-1(16),3,6,13(17),14-pentaene]
24 | – | ≤ 0.1 | Cc1c2c(nn1C1CC3(COC3)C1)OCCCNc1nc(ncc1Cl)N2 [E300, 14-Chloro-4-methyl-5-{2-oxaspiro[3.3]heptan-6-yl}-8-oxa-2,5,6,12,16,17-hexaazatricyclo[11.3.1.0^3,7]heptadeca-1(16),3,6,13(17),14-pentaene]
25 | – | ≤ 0.1 | Cc1c2c(nn1CC1(C)COC1)OCCCNc1nc(ncc1Cl)N2 [E143, 14-Chloro-4-methyl-5-[(3-methyloxetan-3-yl)methyl]-8-oxa-2,5,6,12,16,17-hexaazatricyclo[11.3.1.0^3,7]heptadeca-1(16),3,6, 13(17), 14-pentaene]
26 | – | ≤ 0.1 | Cc1c2c(nn1C1CCC(OC(F)F)CC1)OCC[C@@H](C)Nc1nc(ncc1Cl)N2 (stereo partly drawn) [E374, (11R)-14-Chloro-5-[4-(difluoromethoxy)cyclohexyl]-4,11-di methyl-8-oxa-2,5,6,12,16,17-hexaazatricyclo[11.3.1.0^3,7]hepta deca-1(16),3,6,13(17),14-pentaene]
27 | – | ≤ 0.1 | Cc1c2c(nn1C1CCOCC1)OCCCNc1nc(ncc1C(F)(F)F)N2 [E111, 4-Methyl-5-(oxan-4-yl)-14-(trifluoromethyl)-8-oxa-2,5,6,12,16, 17-hexaazatricyclo[11.3.1.0^3,7]heptadeca-1(16),3,6,13(17),14-pentaene]
28 | – | ≤ 0.1 | COC1CNc2cc(ncc2Cl)Nc2c(nn(C3CCOCC3)c2C)OC1 (stereo not drawn) [E342, 14-Chloro-10-methoxy-4-methyl-5-(oxan-4-yl)-8-oxa-2,5,6, 12,16-pentaazatricyclo[11.3.1.0^3,7]heptadeca-1(16),3,6,13(17), 14-pentaene]
